Columns and labels:
[1] = test system: HEK-N/F cells; experiment: Protection of cells from oxidative damage induced by t-butylhydroperoxide; assay type: cell-based, human; conditions: 1.5 mM t-butylhydroperoxide 3 hours
Procedure: t-butylhydroperoxide is metabolized into a free radical intermediate as it comes in a cell, so that it causes lipid peroxidation, resulting in cell damage. This phenomenon is similar to that caused by oxidataive stress accumulated in cells and tissues. […] HEK-N/F, an epidermal cell line of a newborn baby, was treated with 1.5 mM of t-butylhydroxyperoxide for 3 hours.

[2] = test system: HEK-N/F cells; experiment: Cell protection from UV irradiation (DNA damage, ethidium homodimer fluorescence); assay type: cell-based, human; conditions: 35 mJ/cm^2 UVB, Et2 fluorescence (DNA damage)
Procedure: UV irradiation induces DNA damage and DNA-protein connection by increasing active oxygen in cells. When HEK-N/F cells were irradiated by 35 mJ/cm^2 of UVB, DNA chains in nucleus were cut. After uniting the broken chains to ethidium homodimer (Et2), a DNA chain intercalating fluorescent dye, extent of fluorescence was measured to quantify the amount of DNA damage. Particularly, HEK-N/F cells were cultured on serum-free KGM medium (Clonetics), which were inoculated into wells of a 24-well plate by 0.5−4×10^4 cells/2 cm^2. Then, the cells were cultured for 18 hours, after which a sample was treated thereto for 2 hours. […] The cells exposed on UV were further cultured for 1-7 hours, and then, […] ethidium homodimer (Et2, Millipore) was added. 30 minutes later, fluorescence was measured with Millipore microplate fluorometer Cytofluor 2350 (excitation: 485 nm, emission: 645 nm).

[3] = test system: back skin of SKH-1 hairless mouse; experiment: Protection of skin tissues from UVB irradiation in hairless mice; assay type: in vivo
Procedure: 5-6 week old female hairless mice (SKH-hr 1) were raised for 14 days at 24±2° C. with 50±10% relative humidity and 12 hour day/night cycle. 30-60 minutes before the experiment, a sample was hyperdermically injected on 5 spots of the mice and the backs of the mice were irradiated by UVB. 5 mice per each group were put in a cage (20×15×5 cm) and UVB irradiation was performed using a UV lamp (HP-15M, 280-400 nm, max. 312 nm; Atto Co., Japan) at 15 cm distance by 15 kJ/m^2. After the completion of UV irradiation for 24 hours, back skin was cut and stored at −70° C. until peroxidation was measured.
UVB irradiation causes serious lipid peroxidation in skin tissues, so measurement of the peroxided lipid content might lead to the measurement of skin damages. Particularly, UVB was irradiated on the back skin of SKH-1 hairless mouse. 48 hours later, the back skin tissues were cut to measure lipid peroxidation by thiobarbituric acid (TBA) method. The back skin of the mouse was put in a 10×50 mM K-P buffer solution for homogenation.
Hydrogen peroxidation was also investigated. The frozen back skin section was put in 0.1 M Tris-HCl buffer solution (pH 7.5) containing 1 mg/ml of glucose and 1 mg/ml diaminobenzidine (DAB), which was cultured at 37° C. for 5-6 hours. After being washed with distilled water, the solution was stained with 2% methyl green for 60 minutes. Nucleus stained blue and DAB peroxidase (brown) were observed under a microscope.

[4] = test system: HEK-N/F cells; experiment: Prolongation of life span of a cell; assay type: cell-based, human; conditions: 3 μg/ml during culture
Procedure: HEK-N/F cells were obtained from foreskin of a newborn baby after its fibroblasts, another major component of skin, were treated with uridine bromide. Then, the cells were cultured in DMEM medium supplemented with 10 FBS. HEK-N/F cells were diluted consecutively at the ratio of 1:4 during the culture. Before being treated with samples, the cells were grown up to 3 PDL (population doubling level). During the culture, each sample was administered by […]. Medium was replaced every three days by fresh medium supplemented with a culture solution containing the equal concentration of the sample.

[5] = test system: HEK-N/F cells; experiment: Telomere length / maximum PDL (Southern blot of TRFs); assay type: cell-based, human
Procedure: In the above Example 8, an extract of […] chinensis and active ingredients separated from the same were confirmed to have an effect of prolongation of life span of a cell. Thus, in this example, relation between the effect of prolongation of life span and the length of a telomere was investigated. Particularly, genomic DNA was extracted from each cell of different ages by using a nucleic acid extraction kit (Isoquick Nucleic Acid Extraction kit, ORCA Research Inc.), which was stored at 4° C. after being dissolved in Tris-EDTA solution (10 mM Tris-HCl, 1 mM EDTA, pH 8.0). 2 μl of 10×H buffer solution (TaKaRa), 2 μl of the extracted genomic DNA solution and distilled water were all mixed in a 1.5 ml tube, making final volume 19 μl. Then, 1 μl at of restriction enzyme […]) was added thereto. […] Then, the gel was immersed in 0.25 N HCl, followed by shaking for 15 minutes. The gel was washed twice with distilled water. This gel was dipped into denaturing solution (0.2 N NaOH, 0.6 M NaCl), followed by shaking for 25 minutes at room temperature. And then, the gel was washed three times with distilled water. On a blotting device filled with 6×SSC, nitrocellulose membrane (Optitran BA-S 85, Schleicher & Schuel), 3 mm filter paper, paper towel, glass plate and weight (2 kg) were loaded in that order, followed by blotting overnight. After the blotting was finished, membrane filter was soaked in 3×SSC, and then water was discarded smoothly. The positions of the wells on the membrane were marked. The membrane was placed between filter papers, followed by baking at 80° C. for overnight. […] After being dried, the membrane was covered with wrap and set in a cassette on which X-ray film (Scientific Imaging Film, Kodak) and intensifying screen were attached. Autoradiography was performed at -80° C. for overnight. Based on the developed film and the location of the membrane, the positions of the wells were marked by a magic pen. The density peak of TRFs was detected by a laser densitometer (UltroScan XL, Pharmacia) and its mobility was calculated.

[6] = treating amount 30 mg/kg + UVB irradiation

SMILES | Cell survival rate (%) [1] | TBARS (pmol/mg protein) ([1]; compound 50.0 µg/ml) | fluorescence lower than that of a control [2] | TBARS (nmol/mg protein) ([3]; treating amount 10 mg/kg + UVB irradiation) | TBARS (nmol/mg protein) [3, 6] | average life span of a cell [4] | life span, times as long as that of a control [4] | telomere shortening speed delayed, comparing to control [5] | maximum PDL ([5]; control 14.1) | TBARS (nmol/mg protein) ([3]; treating amount 50 mg/kg + UVB irradiation)
Oc1cc(O)cc(/C=C/c2ccc(O)c(O)c2)c1 [Chemical Formula 5, piceatannol] | 84.7±6.9% | 520.2 ± 60.7 pmol/mg protein | 66.7% | 0.16 ± 0.08 nmol/mg protein | 0.07 ± 0.03 nmol/mg protein | 76 days | 2.1 times | 2.1 times | 29.9 | –
O=C1O[C@H]([C@@H](O)CO)C([O-])=C1OP(=O)([O-])[O-].O=C1O[C@H]([C@@H](O)CO)C([O-])=C1OP(=O)([O-])[O-].[Mg+2].[Mg+2].[Mg+2] [MAP, magnesium-L-ascorbyl-2-phosphate, reference compound] | – | – | – | – | 0.28 ± 0.06 nmol/mg protein | – | – | – | – | 0.16 ± 0.05 nmol/mg protein

Reference: patent US7763287B2, “Extract of Cercis chinensis having anti-oxidant activity and anti-aging activity, and cosmetical composition containing the extract for anti-oxidation, skin-aging protection and wrinkle improvement” (Hankook Pharm. Co., Inc., priority 2002, dated 2010)
